The values that follow come from US6369092B1, “Method for treating neoplasia by exposure to substituted benzimidazole derivatives” (Cell Pathways, Inc., priority 1998, dated 2002).

As to `CCCc1nc2ccc(NC(=O)OC(C)(C)C)cc2n1Cc1ccccc1Cl` [I, 6-t-Butoxycarbonylamino-1-(2-Chlorobenzyl)-2-n-Propylbenzimidazole], the melting point – broadly, the temperature of the solid-liquid transition – was 166 to 168 °C.
